In brackets after ≈: the same amount, converted by molar mass. Like-named read-outs stand apart in the source and are kept apart here.
What was measured:
[1] = tested on: M. tuberculosis H37Rv-LP DprE1 C387S; type: cell-based, Mycobacterium tuberculosis
[2] = tested on: M. tuberculosis H37Rv-LP MmpL3 F255L; type: cell-based, Mycobacterium tuberculosis
[3] = tested on: M. tuberculosis H37Rv-LP QcrB A396T; type: cell-based, Mycobacterium tuberculosis
[4] = tested on: M. tuberculosis H37Rv ATCC 26518 QcrBT313I; type: cell-based, Mycobacterium tuberculosis
[5] = tested on: M. tuberculosis H37Rv ATCC 26518 QcrBM342T; type: cell-based, Mycobacterium tuberculosis
[6] = tested on: M. tuberculosis resistant isolates LP-0499227-RM; type: cell-based, Mycobacterium tuberculosis
[7] = tested on: M. tuberculosis H37Rv ATCC 27294 cydKO; assay: microbe, parasite or virus in culture; type: cell-based; settings: Mycobacterium tuberculosis, 120 h, read-out: MIC, H37Rv ATCC 27294 cydKO
[8] = tested on: M. tuberculosis resistant isolates LP-0497553-RM; assay: microbe, parasite or virus in culture; type: cell-based, Mycobacterium tuberculosis; settings: for MIC: Mycobacterium tuberculosis, 504 h, 24-well agar plates, 3 weeks

Row | Compound | MIC, DprE1 C387S [1] | MIC, MmpL3 F255L [2] | MIC, QcrB A396T [3] | MIC, H37Rv ATCC 26518 QcrBT313I [4] | MIC, H37Rv ATCC 26518 QcrBM342T [5] | MIC on solid medium, LP-0499227-RM1 [6] | MIC on solid medium, LP-0499227-RM2 [6] | MIC on solid medium, LP-0499227-RM3 [6] | MIC on solid medium, LP-0499227-RM4 [6] | MIC on solid medium, LP-0499227-RM7 [6] | MIC [7] | MIC on solid medium, LP-0497553-RM1 [8] | MIC on solid medium, LP-0497553-RM2 [8] | MIC on solid medium, LP-0497553-RM4 [8] | MIC on solid medium, LP-0497553-RM5 [8] | MIC on solid medium, LP-0497553-RM10 [8] | MIC on solid medium, LP-0497553-RM11 [8] | MIC on solid medium, LP-0497553-RM15 [8] | MIC ([8]; read-out: MIC on solid medium, LP-0497553-RM14) | MIC ([8]; read-out: MIC on solid medium, LP-0497553-RM23)
1 | FC(F)(F)c1ccc(CCNc2cc(-c3ccccn3)nc3ncnn23)cc1 [TPN-0006267] | 0.66 ± 0.01 µM (≈ 0.254 µg/mL) | 1.8 ± 0.57 µM (≈ 0.692 µg/mL) | 5.9 ± 3.5 µM (≈ 2.27 µg/mL) | >20 µM | 10 µM (≈ 3.84 µg/mL) | >100 µM | >100 µM | >100 µM | 25 µM (≈ 9.61 µg/mL) | >100 µM | – | – | – | – | – | – | – | – | – | –
2 | Cc1ccc(CCNc2cc(-c3ccccc3)nc3ncnn23)cc1 [TPN-0006245] | 0.92 ± 0.3 µM (≈ 0.303 µg/mL) | 2 ± 0.07 µM (≈ 0.659 µg/mL) | 5.6 ± 2.5 µM (≈ 1.84 µg/mL) | >20 µM | >20 µM | – | – | – | – | – | – | – | – | – | – | – | – | – | – | –
3 | FC(F)(F)c1ccc(CCNc2cc(-c3ccccc3)nc3ncnn23)cc1 [TPN-0006243] | 0.95 ± 0.29 µM (≈ 0.364 µg/mL) | 2.7 ± 2.4 µM (≈ 1.04 µg/mL) | 5.7 ± 2.1 µM (≈ 2.19 µg/mL) | >20 µM | >20 µM | – | – | – | – | – | < 0.39 µM | – | – | – | – | – | – | – | – | –
4 | COc1ccc(CCNc2cc(-c3ccccn3)nc3ncnn23)cc1 [TPN-0006239] | 0.42 ± 0.07 µM (≈ 0.145 µg/mL) | 0.86 ± 0.21 µM (≈ 0.298 µg/mL) | 3.4 ± 0.28 µM (≈ 1.18 µg/mL) | >20 µM | 11 µM (≈ 3.81 µg/mL) | – | – | – | – | – | 0.13 ± 0.007 µM (≈ 0.045 µg/mL) | 25 µM (≈ 8.66 µg/mL) | 25 µM (≈ 8.66 µg/mL) | 50 µM (≈ 17.3 µg/mL) | 50 µM (≈ 17.3 µg/mL) | 50 µM (≈ 17.3 µg/mL) | 50 µM (≈ 17.3 µg/mL) | 50 µM (≈ 17.3 µg/mL) | 50 µM (≈ 17.3 µg/mL) | 50 µM (≈ 17.3 µg/mL)
5 | COc1ccc(CCNc2cc(-c3ccccc3)nc3ncnn23)cc1 [TPN-0006218] | 0.94 ± 0.67 µM (≈ 0.325 µg/mL) | 2 ± 0.99 µM (≈ 0.691 µg/mL) | 6.8 ± 2.8 µM (≈ 2.35 µg/mL) | – | – | – | – | – | – | – | – | – | – | – | – | – | – | – | – | –

Reference: article PMC9017309, “Triazolopyrimidines Target Aerobic Respiration in Mycobacterium tuberculosis” (Antimicrobial Agents and Chemotherapy, 2022)
